Assay results taken from PubChem BioAssay (NCI).
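Interpolation was linear, between the two tested concentrations surrounding the appropriate level; five concentrations were tested over 48 hours in 96-well plates. Here, GI50 denotes the concentration required for 50% inhibition of growth. TGI marks complete inhibition of growth.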

Columns and labels:
Assay in all cases: growth of human tumour cells (NCI), 48 h
MDA-MB-435 = test system: MDA-MB-435
SR leukemia = test system: SR leukemia
SW-620 colon = test system: SW-620 colon
NCI-H226 lung = test system: NCI-H226 lung
RXF 393 renal = test system: RXF 393 renal
KM12 colon = test system: KM12 colon
CCRF-CEM leukemia = test system: CCRF-CEM leukemia
OVCAR-4 ovarian = test system: OVCAR-4 ovarian
TK-10 renal = test system: TK-10 renal
NCI/ADR-RES ovarian = test system: NCI/ADR-RES ovarian
MOLT-4 leukemia = test system: MOLT-4 leukemia
UO-31 renal = test system: UO-31 renal
HL-60(TB) leukemia = test system: HL-60(TB) leukemia
PC-3 prostate = test system: PC-3 prostate
HS 578T breast = test system: HS 578T breast
HCC-2998 colon = test system: HCC-2998 colon
SK-MEL-5 melanoma = test system: SK-MEL-5 melanoma
SNB-19 CNS = test system: SNB-19 CNS
ACHN renal = test system: ACHN renal
SN12C renal = test system: SN12C renal
SF-539 CNS = test system: SF-539 CNS
NCI-H460 lung = test system: NCI-H460 lung
NCI-H23 lung = test system: NCI-H23 lung
DU-145 prostate = test system: DU-145 prostate
CAKI-1 renal = test system: CAKI-1 renal
786-0 renal = test system: 786-0 renal
HOP-62 NSCLC = test system: HOP-62 NSCLC
OVCAR-3 ovarian = test system: OVCAR-3 ovarian
HOP-92 NSCLC = test system: HOP-92 NSCLC
A498 renal = test system: A498 renal
LOX IMVI melanoma = test system: LOX IMVI melanoma
SF-295 CNS = test system: SF-295 CNS
M14 melanoma = test system: M14 melanoma
HCT-15 colon = test system: HCT-15 colon
NCI-H522 lung = test system: NCI-H522 lung
K-562 leukemia = test system: K-562 leukemia
UACC-62 melanoma = test system: UACC-62 melanoma
U251 CNS = test system: U251 CNS
SF-268 CNS = test system: SF-268 CNS
T-47D breast = test system: T-47D breast
SK-MEL-2 melanoma = test system: SK-MEL-2 melanoma
MALME-3M melanoma = test system: MALME-3M melanoma
HT29 colon = test system: HT29 colon
SK-MEL-28 melanoma = test system: SK-MEL-28 melanoma
COLO 205 colon = test system: COLO 205 colon
MDA-MB-231 breast = test system: MDA-MB-231 breast
OVCAR-8 ovarian = test system: OVCAR-8 ovarian
RPMI-8226 leukemia = test system: RPMI-8226 leukemia
SK-OV-3 ovarian = test system: SK-OV-3 ovarian
A549 NSCLC = test system: A549 NSCLC
IGROV1 ovarian = test system: IGROV1 ovarian
BT-549 breast = test system: BT-549 breast
HCT-116 colon = test system: HCT-116 colon
OVCAR-5 ovarian = test system: OVCAR-5 ovarian
SNB-75 CNS = test system: SNB-75 CNS
UACC-257 melanoma = test system: UACC-257 melanoma

Cc1cccc2c1O/C(=C\c1ccc([N+](=O)[O-])o1)C2=O
GI50 (MDA-MB-435): 1020 nM | TGI (MDA-MB-435): 2460 nM | GI50 (SR leukemia): 120 nM | TGI (SR leukemia): 727 nM | GI50 (SW-620 colon): 223 nM | TGI (SW-620 colon): 864 nM | GI50 (NCI-H226 lung): 1420 nM | TGI (NCI-H226 lung): 3.14 µM | GI50 (RXF 393 renal): 1240 nM | TGI (RXF 393 renal): 2830 nM | GI50 (KM12 colon): 1380 nM | TGI (KM12 colon): 2.99 µM | GI50 (CCRF-CEM leukemia): 285 nM | TGI (CCRF-CEM leukemia): 1.05 µM | GI50 (OVCAR-4 ovarian): 2060 nM | TGI (OVCAR-4 ovarian): 8.06 µM | GI50 (TK-10 renal): 2300 nM | TGI (TK-10 renal): 5.61 µM | GI50 (NCI/ADR-RES ovarian): 2.54 µM | TGI (NCI/ADR-RES ovarian): > 60.4 µM | GI50 (MOLT-4 leukemia): 1520 nM | TGI (MOLT-4 leukemia): 5.7 µM | GI50 (UO-31 renal): 1090 nM | TGI (UO-31 renal): 2.49 µM | GI50 (HL-60(TB) leukemia): 1580 nM | TGI (HL-60(TB) leukemia): 4.35 µM | GI50 (PC-3 prostate): 1340 nM | TGI (PC-3 prostate): 4.11 µM | GI50 (HS 578T breast): 2250 nM | TGI (HS 578T breast): > 25 µM | GI50 (HCC-2998 colon): 1340 nM | TGI (HCC-2998 colon): 3.91 µM | GI50 (SK-MEL-5 melanoma): 1140 nM | TGI (SK-MEL-5 melanoma): 2420 nM | GI50 (SNB-19 CNS): 2700 nM | TGI (SNB-19 CNS): > 33 µM | GI50 (ACHN renal): 367 nM | TGI (ACHN renal): 1440 nM | GI50 (SN12C renal): 1570 nM | TGI (SN12C renal): 4.25 µM | GI50 (SF-539 CNS): 1530 nM | TGI (SF-539 CNS): 3.22 µM | GI50 (NCI-H460 lung): 817 nM | TGI (NCI-H460 lung): 2500 nM | GI50 (NCI-H23 lung): 1350 nM | TGI (NCI-H23 lung): 3.41 µM | GI50 (DU-145 prostate): 659 nM | TGI (DU-145 prostate): 2120 nM | GI50 (CAKI-1 renal): 494 nM | TGI (CAKI-1 renal): 1800 nM | GI50 (786-0 renal): 1800 nM | TGI (786-0 renal): 4.27 µM | GI50 (HOP-62 NSCLC): 1640 nM | TGI (HOP-62 NSCLC): 4.44 µM | GI50 (OVCAR-3 ovarian): 689 nM | TGI (OVCAR-3 ovarian): 1890 nM | GI50 (HOP-92 NSCLC): 1160 nM | TGI (HOP-92 NSCLC): 2950 nM | GI50 (A498 renal): 1760 nM | TGI (A498 renal): 4.63 µM | GI50 (LOX IMVI melanoma): 1230 nM | TGI (LOX IMVI melanoma): 2690 nM | GI50 (SF-295 CNS): 2000 nM | TGI (SF-295 CNS): 6.46 µM | GI50 (M14 melanoma): 1430 nM | TGI (M14 melanoma): 3.21 µM | GI50 (HCT-15 colon): 274 nM | TGI (HCT-15 colon): 998 nM | GI50 (NCI-H522 lung): 222 nM | TGI (NCI-H522 lung): 668 nM | GI50 (K-562 leukemia): 296 nM | TGI (K-562 leukemia): 1120 nM | GI50 (UACC-62 melanoma): 1260 nM | TGI (UACC-62 melanoma): 2.72 µM | GI50 (U251 CNS): 1440 nM | TGI (U251 CNS): 2890 nM | GI50 (SF-268 CNS): 1560 nM | TGI (SF-268 CNS): 3.94 µM | GI50 (T-47D breast): 1200 nM | TGI (T-47D breast): 3.69 µM | GI50 (SK-MEL-2 melanoma): 1760 nM | TGI (SK-MEL-2 melanoma): 3.52 µM | GI50 (MALME-3M melanoma): 971 nM | TGI (MALME-3M melanoma): 2.66 µM | GI50 (HT29 colon): 324 nM | TGI (HT29 colon): 1270 nM | GI50 (SK-MEL-28 melanoma): 1530 nM | TGI (SK-MEL-28 melanoma): 3.05 µM | GI50 (COLO 205 colon): 660 nM | TGI (COLO 205 colon): 2140 nM | GI50 (MDA-MB-231 breast): 1210 nM | TGI (MDA-MB-231 breast): 3.61 µM | GI50 (OVCAR-8 ovarian): 941 nM | TGI (OVCAR-8 ovarian): 7.93 µM | GI50 (RPMI-8226 leukemia): 320 nM | TGI (RPMI-8226 leukemia): 1.8 µM | GI50 (SK-OV-3 ovarian): 2570 nM | TGI (SK-OV-3 ovarian): 8.28 µM | GI50 (A549 NSCLC): 2560 nM | TGI (A549 NSCLC): 7.81 µM | GI50 (IGROV1 ovarian): 1540 nM | TGI (IGROV1 ovarian): 5.39 µM | GI50 (BT-549 breast): 1280 nM | TGI (BT-549 breast): 2630 nM | GI50 (HCT-116 colon): 251 nM | TGI (HCT-116 colon): 777 nM | GI50 (OVCAR-5 ovarian): 1790 nM | TGI (OVCAR-5 ovarian): 3.74 µM | GI50 (SNB-75 CNS): 1640 nM | TGI (SNB-75 CNS): 5.8 µM | GI50 (UACC-257 melanoma): 1420 nM | TGI (UACC-257 melanoma): 2910 nM

c1ccc2cc(Cn3c[n+](Cc4ccc5ccccc5c4)c4ccccc43)ccc2c1
GI50 (MDA-MB-435): 1370 nM | TGI (MDA-MB-435): 2740 nM | GI50 (SW-620 colon): 1270 nM | TGI (SW-620 colon): 2750 nM | GI50 (KM12 colon): 1540 nM | TGI (KM12 colon): 3.15 µM | GI50 (OVCAR-4 ovarian): 1190 nM | TGI (OVCAR-4 ovarian): 2.61 µM | GI50 (NCI/ADR-RES ovarian): 16.6 µM | TGI (NCI/ADR-RES ovarian): 61.8 µM | GI50 (UO-31 renal): 1740 nM | TGI (UO-31 renal): 4.62 µM | GI50 (PC-3 prostate): 1100 nM | TGI (PC-3 prostate): 2.43 µM | GI50 (SK-MEL-5 melanoma): 556 nM | TGI (SK-MEL-5 melanoma): 1860 nM | GI50 (ACHN renal): 1940 nM | TGI (ACHN renal): 4000 nM | GI50 (SF-539 CNS): 1590 nM | TGI (SF-539 CNS): 3 µM | GI50 (DU-145 prostate): 1510 nM | TGI (DU-145 prostate): 2880 nM | GI50 (786-0 renal): 1520 nM | TGI (786-0 renal): 3.09 µM | GI50 (OVCAR-3 ovarian): 927 nM | TGI (OVCAR-3 ovarian): 2220 nM | GI50 (HOP-92 NSCLC): 192 nM | TGI (HOP-92 NSCLC): 1570 nM | GI50 (A498 renal): 1080 nM | TGI (A498 renal): 2.5 µM | GI50 (SF-268 CNS): 1310 nM | TGI (SF-268 CNS): 2.72 µM | GI50 (SK-MEL-2 melanoma): 1640 nM | TGI (SK-MEL-2 melanoma): 3.14 µM | GI50 (SK-MEL-28 melanoma): 1520 nM | TGI (SK-MEL-28 melanoma): 3.11 µM | GI50 (MDA-MB-231 breast): 1100 nM | TGI (MDA-MB-231 breast): 2.47 µM | GI50 (SK-OV-3 ovarian): 1670 nM | TGI (SK-OV-3 ovarian): 3.4 µM | GI50 (A549 NSCLC): 1870 nM | TGI (A549 NSCLC): 3.88 µM | GI50 (OVCAR-5 ovarian): 1460 nM | TGI (OVCAR-5 ovarian): 2.89 µM | GI50 (UACC-257 melanoma): 1390 nM | TGI (UACC-257 melanoma): 2970 nM

COc1cc(/C=C2\CN(S(=O)(=O)c3ccccc3)C/C(=C\c3cc(CN4CCCCC4)c(O)c(OC)c3)C2=O)cc(CN2CCCCC2)c1O
GI50 (KM12 colon): 1730 nM | TGI (KM12 colon): 3.41 µM | GI50 (CCRF-CEM leukemia): 2620 nM | TGI (CCRF-CEM leukemia): 7.25 µM | GI50 (PC-3 prostate): 1730 nM | TGI (PC-3 prostate): 3.4 µM | GI50 (HS 578T breast): 1630 nM | TGI (HS 578T breast): 4.31 µM | GI50 (SNB-19 CNS): 2000 nM | TGI (SNB-19 CNS): 4.58 µM | GI50 (ACHN renal): 1540 nM | TGI (ACHN renal): 2930 nM | GI50 (SN12C renal): 1830 nM | TGI (SN12C renal): 3.63 µM | GI50 (DU-145 prostate): 1730 nM | TGI (DU-145 prostate): 3190 nM | GI50 (OVCAR-3 ovarian): 1720 nM | TGI (OVCAR-3 ovarian): 3250 nM | GI50 (SF-295 CNS): 2250 nM | TGI (SF-295 CNS): 5.01 µM | GI50 (HCT-15 colon): 1790 nM | TGI (HCT-15 colon): 3780 nM | GI50 (UACC-62 melanoma): 1650 nM | TGI (UACC-62 melanoma): 3.44 µM | GI50 (MALME-3M melanoma): 1740 nM | TGI (MALME-3M melanoma): 3.39 µM | GI50 (MDA-MB-231 breast): 1770 nM | TGI (MDA-MB-231 breast): 3.47 µM | GI50 (RPMI-8226 leukemia): 2290 nM | TGI (RPMI-8226 leukemia): 5.11 µM | GI50 (SK-OV-3 ovarian): 1930 nM | TGI (SK-OV-3 ovarian): 3.85 µM
